PMC9791819 (Biochemistry and Biophysics Reports, 2022)

How the values were obtained:
[1] = target: T1, BiCMKEngA (Bifidobacterium longum, UniProt A0ACD7UKP5); assay: isothermal titration calorimetry; assay type: binding; details: 10 mM Tris pH 8.0, 300 mM NaCl, 50 mM MgCl2, 25 °C; with or without 1 mM CMP
T1 sequence (A0ACD7UKP5 1-709): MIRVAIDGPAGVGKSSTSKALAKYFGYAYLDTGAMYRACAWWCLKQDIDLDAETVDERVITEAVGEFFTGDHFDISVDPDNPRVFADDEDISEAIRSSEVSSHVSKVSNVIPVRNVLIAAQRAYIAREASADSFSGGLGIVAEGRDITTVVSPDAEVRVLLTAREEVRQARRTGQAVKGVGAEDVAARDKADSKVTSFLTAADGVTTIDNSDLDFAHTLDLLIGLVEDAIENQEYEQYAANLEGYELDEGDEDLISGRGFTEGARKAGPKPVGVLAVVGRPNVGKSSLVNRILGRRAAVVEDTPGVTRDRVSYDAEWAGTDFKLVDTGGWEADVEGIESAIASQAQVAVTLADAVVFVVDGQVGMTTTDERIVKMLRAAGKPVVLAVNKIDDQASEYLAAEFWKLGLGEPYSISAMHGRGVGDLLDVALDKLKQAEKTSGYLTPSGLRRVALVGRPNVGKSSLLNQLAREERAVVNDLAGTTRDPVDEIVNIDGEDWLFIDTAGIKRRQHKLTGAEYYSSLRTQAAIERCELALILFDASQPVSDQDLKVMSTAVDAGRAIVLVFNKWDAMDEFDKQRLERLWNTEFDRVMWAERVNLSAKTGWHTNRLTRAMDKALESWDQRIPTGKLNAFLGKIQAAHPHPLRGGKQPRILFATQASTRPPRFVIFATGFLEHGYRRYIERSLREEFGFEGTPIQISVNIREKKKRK

[2] = target: T2, BiEngA (Bifidobacterium longum, UniProt A0ACD7UKP5); assay: isothermal titration calorimetry; assay type: binding; details: 10 mM Tris pH 8.0, 300 mM NaCl, 50 mM MgCl2, 25 °C
T2 sequence (A0ACD7UKP5 222-709 limits assumed): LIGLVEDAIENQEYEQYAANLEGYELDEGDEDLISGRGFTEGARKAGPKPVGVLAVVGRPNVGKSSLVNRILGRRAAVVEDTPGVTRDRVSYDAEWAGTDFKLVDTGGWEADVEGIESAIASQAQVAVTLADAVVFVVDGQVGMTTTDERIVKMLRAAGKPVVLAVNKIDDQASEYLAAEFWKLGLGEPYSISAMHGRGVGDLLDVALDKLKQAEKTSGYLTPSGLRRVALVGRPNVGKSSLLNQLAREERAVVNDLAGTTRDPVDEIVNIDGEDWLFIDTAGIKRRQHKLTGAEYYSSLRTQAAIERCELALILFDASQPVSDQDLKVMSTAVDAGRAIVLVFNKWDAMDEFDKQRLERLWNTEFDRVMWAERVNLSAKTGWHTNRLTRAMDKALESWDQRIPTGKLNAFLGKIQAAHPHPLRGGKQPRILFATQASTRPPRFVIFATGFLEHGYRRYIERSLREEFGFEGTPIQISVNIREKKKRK

## Nc1ncnc2c1ncn2[C@@H]1O[C@H](COP(=O)(O)OP(=O)(O)OP(=O)(O)O)[C@@H](O)[C@H]1O [ATP]
[1]
  KD: Relative dissociation constants of the full length and individual domains for ATP and GTP

## Nc1nc2c(ncn2[C@@H]2O[C@H](COP(=O)(O)OP(=O)(O)OP(=O)(O)O)[C@@H](O)[C@H]2O)c(=O)[nH]1 [GTP]
[2]
  KD: the KD values for GTP, as determined from ITC experiments, were of the similar order
